Data on two compounds can be found in patent US20090117170A1, “SEGMENTED DEVICE FOR THE DELAYED RELEASE OF MOLECULES IN A TANGENTIAL DIRECTION THROUGH THIN FILMS AND USES THEREOF” (CAPSULUTION NANOSCIENCE AG, priority 2004, published 2009).

The nature of data set [1]: enalaprilate release from segmented silicon disc release apparatus. The format is physicochemical. The text has this:
A release apparatus was produced from round silicon discs (outer diameter 14.0 mm, thickness 0.525 mm) having a very low surface roughness. The release apparatus consisted of 15 discs having a core drilling (diameter=8 mm), a silicon disc without a core drilling as a cover plate and a base plate having closable openings for filling. A silicon disc having a core drilling was glued onto the base plate of titanium. The release apparatus was assembled underwater and fixed by means of a holder. Subsequently, the reservoir was emptied through the reclosable openings in the base plate before the release apparatus was filled with an enalaprilate suspension.
As in Example 3, a release apparatus was produced from round silicon discs (outer diameter 14.0 mm, thickness 0.525 mm), the silicon discs being coated with polyelectrolyte multilayers. Before the assembly of the release apparatus, the silicon discs were coated with a 16 PAH/PSS layer.
As in Example 4, a release apparatus was produced from round coated silicon discs (outer diameter 14.0 mm, thickness 0.525 mm), 25 discs having a core drilling being used.

The nature of data set [2]: ibuprofen release from segmented glass release apparatus in phosphate saline buffer. The format is physicochemical. Conditions: 10 intersegment films, 37° C., phosphate saline buffer pH 7.4 with sodium azide. Here is the method: A release apparatus was produced from glass discs 3 to 11 (soda-lime glass, edge lengths 26.0×26.0 mm, disc thickness of 1.0 mm) having a surface roughness of 0.172-1.39 Ra (see FIGS. 7A and 7B). The release apparatus consisted of 9 discs (26.0×26.0 mm) having a core drilling 13 (diameter=8 mm) and was closed off on both sides by two discs without a core drilling. Separate intersegment films were not used. A reservoir volume of theoretically 452.4 μl results in the case of 9 discs having a core drilling and a disc thickness of 1.0 mm. The release apparatus was filled with a model substance before closing (100 mg of crystalline ibuprofen) and the remaining reservoir volume was subsequently filled with release medium. Following this, the release behavior of the model substance was investigated at 37° C. in phosphate saline buffer pH 7.4 with addition of sodium azide. FIGS. 7C and 7D show the ibuprofen release from the segmented glass apparatus having 10 intersegment films in phosphate saline buffer pH 7.4 with addition of sodium azide. […] A release apparatus consisting of glass discs (soda-lime glass, edge lengths 26.0×26.0 mm, disc thickness of 1.0 mm) having a surface roughness of 0.172-1.39 Ra was produced (see FIGS. 7A and 7B), the discs being modified by a separating film covering only the outer edges of the discs such that an intersegment film thickness (hollow space) of about 50 μm was present. The release apparatus consisted of 9 discs 3 to 11 (26.0×26.0 mm) having a core drilling 13 (diameter=8 mm) and was closed off on both sides by two discs without a core drilling. Before closing, the release apparatus was filled with a model substance (100 mg of crystalline ibuprofen) and the remaining reservoir volume was subsequently filled with release medium. Following this, the release behavior of the model substance was investigated at 37° C. in phosphate saline buffer pH 7.4 with addition of sodium azide. […]

Regarding `C[C@H](N[C@@H](CCc1ccccc1)C(=O)O)C(=O)N1CCC[C@H]1C(=O)O` [enalaprilate], the release rate entry is “about 150 μg per day” in data set [1] (Example 3: uncoated silicon discs, 15 intersegment films, enalaprilate suspension); “about 75 μg per day” in data set [1] (Example 4: silicon discs coated with 16 PAH/PSS layer, 15 modified intersegment films); “about 140 μg per day” in data set [1] (Example 5: coated silicon discs, 25 modified intersegment films).
Regarding `CC(C)Cc1ccc(C(C)C(=O)O)cc1` (stereo not drawn) [ibuprofen], in data set [2] (Example 1: glass apparatus, no separate films, 100 mg crystalline ibuprofen), the “release rate of the model substance (constant release behavior)” value is “about 65 μg/d”. Moreover, the “duration of constant release behavior” value in data set [2] (Example 1: glass apparatus, no separate films) was “more than 100 days”. Further, the “release rate of the model substance” value in data set [2] (Example 2: glass apparatus, modified film thickness (hollow space) about 50 μm, 100 mg crystalline ibuprofen, for 10 to 100 days) was “about 0.6 mg/d”.
